The conditions of data set [1]: according to Lorenz, US 6,433,025; cited from earlier work.
The next data set has as its system retinas. As to conditions: in vivo; cited from earlier work.
Another data set concerns human fibroblast cells. As to conditions: Eichler et al 2002; cited from earlier work.
The test system of a further data set is lung cancer. As to conditions: smokers; daily ingestion of 30 to 60 mg/day; cited from earlier work.
The test system of the next data set is skin cells in culture. As to conditions: quoted from Biesalski et al 2001; cited from earlier work.
Data set [2] deals with skin diseases such as porphyria. As to conditions: cited from earlier work.
A short description of data set [3]: Tolerability and excretion of high oral zeaxanthin dosages. The data set is classed as in vivo, human.
Data set [4] relates to skin. Put plainly: Darkening of skin color after oral zeaxanthin. The data set is classed as in vivo, human. How it is done:
(§1) That dosage was in the range of about 60 mg of zeaxanthin per day for roughly 2 weeks, then about 80 mg/day for a week).
(§2) One coworker began taking 10 mg/day during April, and increased to 20 mg/day during May, and then increased to 40 mg/day during June. […] In July, they increased their dosage to 80 mg/day during several week-long periods, to see what effect it would have on skin color, and on sunburn resistance.
(§3) After seeing and hearing the highly positive results obtained by the two people described in Examples 1 and 2, another coworker decided to also begin taking zeaxanthin at 40 mg/day, starting a couple of weeks before going on a summer vacation with their family.
(§4) A third coworker began taking 10 mg of zeaxanthin per day. Although they were aware of the above-described anecdotal reports of sunburn protection being provided by higher dosages, they decided to not alter their dosage, and they stayed at a dosage of 10 mg/day.
Promptly after that baseline determination, this person began ingesting 30 mg of zeaxanthin per day (10 mg with […] morning meal, and 20 mg with […] evening meal, using the 10 mg capsules available from ZeaVision LLC). During that time, […] continued to take the same anti-oxidant regimen as before. […] […] then re-tested […], using the same UV lamp and procedures as before.

The conditions of data set [5]: in vivo.
From the text: One aspect of that project involved testing both zeaxanthin and lutein, in various dosages and formulations, to evaluate the increases that would result in circulating blood, and in retinal tissue, in human volunteers. A set of tests on human volunteers was developed with assistance by outside experts with skill and experience in that type of planning, and proper steps were taken to obtain informed consent from all volunteers.
The conditions of data set [6]: reported to US-FDA by Roche Vitamins Inc.; cited from earlier work.
The subject of data set [7] is skin. In words: Sunburn protection during prolonged exposure to direct sunlight after oral zeaxanthin. The data set is classed as in vivo, human. How it is done: as §1
While in the Caribbean, they intentionally exposed themself to direct sunlight at a substantially higher intensity than they normally received in their home state of Missouri, for sufficient periods of time to give them an “onset” type of sunburn, which would convert to a suntan over a span of several days if they took proper care of their skin and put lotion on it. […] Instead, any mild redness they experienced in the evening, at the end of a day with a prolonged session in the sun, was not accompanied by sensations of pain, burning, tightness, or dryness in the skin, and it converted to a normal (or slightly reddish, but not uncomfortable) suntan within less than 24 hours.
as §2
On a couple of weekend days during July, and during a family vacation in early August, they deliberately subjected themself to prolonged sun exposure without any sun-blocking lotion, including sessions that normally would have caused them substantial or severe sunburns accompanied by serious discomfort. Instead of receiving those types of sunburns, by the evening of a day like that, they could detect some redness in their skin color, and a heightened condition of skin sensitivity; however, they felt no serious discomfort or sense of “radiating heat” in their skin, and no interference with their ability to sleep comfortably; in addition, by the following day, the redness appeared to be entirely gone.
as §3, §4

In data set [8] the test system is skin. In words: Minimal erythemal dosage (MED) test with medical-grade UV lamp after oral zeaxanthin. The data set is classed as in vivo, human.
For data set [9] the following is noted: cited from earlier work.

`CC1=C(/C=C/C(C)=C/C=C/C(C)=C/C=C/C=C(C)/C=C/C=C(C)/C=C/C2=C(C)C(=O)[C@@H](O)CC2(C)C)C(C)(C)C[C@H](O)C1=O` [astaxanthin]: the “potency as anti-oxidant protective agent versus other carotenoids” value in data set [1] is “roughly ten times the potency”.
In the case of `CC1=C(/C=C/C(C)=C/C=C/C(C)=C/C=C/C=C(C)/C=C/C=C(C)/C=C/C2=C(C)C(=O)CCC2(C)C)C(C)(C)CCC1=O` [canthaxanthin], in the data set with retinas, the retinal side effect entry is “canthaxanthin crystals were being formed and deposited in the retinas”.
On to `CC(C)=CCC/C(C)=C/C=C/C(C)=C/C=C/C(C)=C/C=C/C=C(C)/C=C/C=C(C)/C=C/C=C(\C)CCC=C(C)C` [lycopene], for which the “amount of carotenoid needed for optimal protection” value (“amount of carotenoid needed” for short) with human fibroblast cells was 0.05 nmol/mg protein.
`CC1=C(/C=C/C(C)=C/C=C/C(C)=C/C=C/C=C(C)/C=C/C=C(C)/C=C/C2=C(C)CCCC2(C)C)C(C)(C)CCC1` [β-carotene]: the “amount of carotenoid needed” value with human fibroblast cells was 0.40 nmol/mg protein. The “elevation of risk of lung cancer” value in the data set on lung cancer was around 30%. For the same molecule, the “oxidant properties in cultured skin cells” value with skin cells in culture is reported as “unexpected prooxidant properties”. In addition, the “effective dosage level to treat skin diseases” value in [2] is on record as 180 mg/day.
With `CC1=C[C@H](O)CC(C)(C)[C@H]1/C=C/C(C)=C/C=C/C(C)=C/C=C/C=C(C)/C=C/C=C(C)/C=C/C1=C(C)C[C@@H](O)CC1(C)C` [lutein], in the data set on human fibroblast cells, the “amount of carotenoid needed” value is recorded as 0.30 nmol/mg protein.
For the molecule `CC1=C(/C=C/C(C)=C/C=C/C(C)=C/C=C/C=C(C)/C=C/C=C(C)/C=C/C2=C(C)C[C@@H](O)CC2(C)C)C(C)(C)C[C@H](O)C1` [zeaxanthin], the fecal coloration entry in data set [3] (high dosages, humans) is reported as “changes in fecal coloration”. The adverse effects entry in data set [3] (second inventor, 80 mg/day) is “no adverse effects”. Besides, the skin color change result is “noticeable change in the color and tint of their skin” with skin [4] (Example 1, about 60 mg/day roughly 2 weeks, then about 80 mg/day for a week); “slight but noticeable darkening of their skin” with skin [4] (Example 2 coworker, 40 mg/day); “noticeably darker” with skin [4] (Example 2 coworker, 80 mg/day during several week-long periods); “mildly darker and more tanned shade” in the data set with skin [4] (Example 3 coworker, 40 mg/day for a couple of weeks); “could not detect any change in their skin color” in the data set with skin [4] (Example 4 coworker, 10 mg/day); “slightly perceptible color change in the palms of the hands” with skin [4] (first inventor, 30 mg/day for three weeks). Further, the skin coloration entry with skin [4] (all volunteers who ingested 30 mg or more per day) is “darkened coloration”. In addition, in data set [5], the “dosage response in circulating blood concentrations” value was “valid dosage response”. Moreover, in data set [6], the “No Adverse Effect Level (NOAEL)” value is reported as 1200 mg/day. In addition, the “time for mild redness to convert to normal suntan” value in the data set on skin [7] (Example 1, about 60 then 80 mg/day) is “less than 24 hours”. The “sunburn after prolonged direct sunlight” value in the data set with skin [7] (Example 1, about 60 then 80 mg/day, Caribbean) was “did not get sunburned in the normal manner”. Moreover, in the data set on skin [7] (Example 2 coworker, up to 80 mg/day), the “sunburn after prolonged sun exposure without sun-blocking lotion” value is on record as “excellent protection against sunburn”. For the same molecule, the “sunburn after prolonged sun exposure with no protective lotion” value with skin [7] (Example 3 coworker, 40 mg/day) is “had not suffered any sunburns”. The “sunburn after prolonged session of exposure to the sun” value in the data set with skin [7] (Example 4 coworker, 10 mg/day) is reported as “suffered a noticeable sunburn”. The “MED increase, post-ingestion compared to pre-ingestion” value in the data set on skin [8] (each volunteer of the UV lamp tests, 30 mg/day or higher) was above 30%. Also, the “MED level relative to baseline value” in the data set on skin [8] (first inventor, 60 mg/day for another 3 weeks, baseline 7) is “more than double”. Further, the “post-ingestion MED (minimal erythemal dosage)” value with skin [8] (first inventor, oral 30 mg/day for 3 weeks, baseline 7.0 minutes, on top of anti-oxidant regimen) amounted to 10.5 min; in the data set with skin [8] (first inventor, then 60 mg/day for another 3 weeks, baseline 7.0 minutes) it was 16 min; in the data set on skin [8] (second volunteer, 60 mg/day for 20 days, baseline 5.0 minutes), 10 min. For the same molecule, the “MED value relative to baseline” value in the data set on skin [8] (second volunteer, 60 mg/day for 20 days) was “doubled”. Moreover, the “redness of longest-duration UV-exposed skin patches” value in the data set on skin [8] (two subjects after ingesting zeaxanthin, UV up to >20 minutes and up to 15 minutes) is given as “plateau effect”. Moreover, the “peeling or flaking of clearly UV-burned spots” value in the data set on skin [8] (two subjects, post-ingestion tests, after several days) is “did not begin peeling or flaking”. For the same molecule, the solubility in water entry in data set [9] was “not soluble in water”.

Source of the values: patent US9682024B2, “Protection against sunburn and skin problems with topical and orally-ingested dosages of zeaxanthin” (ZeaVision, LLC, priority 2002, dated 2017).
